Measurements: patent publication EP0612472A1, “Herbicidal combinations comprising triazole derivatives (III)” (MONSANTO EUROPE S.A., priority 1993, dated 1994)

Test system: Galium aparine
Test: field experiment, tank mix, Belgium
Assay type: in vivo
Text: A field experiment has been carried out during winter time (November 1990) in Belgium.
Application was made at 250 l/ha using standard spraying equipment (Backpack sprayer; Nozzles XR 11003). Randomised block design with 3 replicates was used. Unit plot size was 2 X 6m². The soil surface was moist. Total ground cover: 20% crop, 10% weeds and 70% bare ground.
The plant species tested and corresponding true leave stage are:
The herbicides tested are the herbicide A as described in Example 1 in tank mix with another phytohormone type of herbicide, that is mecoprop. 0.2% surfactant (Tween® 20) has been added to the tank.
The results in table 2 hereafter are presented as average values of three replications.

## Cc1cc(Cl)ccc1OC(C)C(=O)O (centres unmarked) [mecoprop]
RATE 1000 g a.i/ha
  control, GALAP 120 DAT: 73.3%
RATE 1200 g a.i/ha
  control, GALAP 120 DAT: 66.7%
